Reference: US10660912B2, “Combination therapy for cancer” (NuCana plc, priority 2015, dated 2020)

Key:
[1] = human, in vivo
Method: Intracellular concentrations were normalised to tissue protein concentrations. dFdCTP=2′,2′-difluoro-2′-deoxycytidine; PBMCs=Peripheral Blood Mononuclear Cells.
6 ml of blood was collected using heparinised blood collection tubes. After centrifugation and separation of plasma, buffycoat was collected and transferred to new test tube containing 3 ml of Lymphoprep density gradient. After centrifugation, the upper interface containing the PBMC layer was transferred to new test tube. After washing with phosphate buffered saline (PBS), PBMCs were re-suspended in 100 μl PBS. Then, another 100 μl of 0.8 M PCA was added and the mixture was vortex mixed and centrifuged followed by transfer of 100 μl supernatant to new test tube. The PCA extracts were stored at −80° C. until time of analysis.
PCA extracts were buffered using 50 μl of 1M NH4Ac, then neutralised using 20 μl of 10% ammonia solution. Finally, 5 μl containing the internal standard 8-ChloroATP and 5 μl deionised water were then added. The extracts were transferred to LC-MS vials and 10 μl were injected into the UPLC-MS/MS system.
10 mg/mL stock solution of the analyte was prepared and aliquot frozen at −80° C. until use. The analyte was resolved using an ultra-performance liquid chromatography system (Accela UPLC, Thermo Scientific, UK) equipped with a Biobasic AX, 5 μm, 50×2.1 mm column (Thermo Electron Corporation, Murrieta, Calif., USA) and a mobile phase consisting of a mixture of 10 mM NH4Ac in ACN/H2O (30:70 v/v), pH 6.0 (A), and 1 mM NH4Ac in ACN/H2O (30:70 v/v), pH 10.5 (B). The mobile phase gradient was employed, comprising: buffer A=95% at 0-0.5 min, from 95 to 0% over 1.25 minutes, held at 0% for 1.75 minute, from 0 to 95% over 0.1 minutes, ending with 95% for 2.9 minutes, all at a flow rate of 500 μl/min.
Eluting compounds of interest were detected using a triple stage quadrupole Vantage mass spectrometry system (Thermo Scientific, UK) equipped with an electrospray ion source. Samples were analyzed in the Multiple Reaction Monitoring (MRM), positive (+ve) and negative (−ve) ion modes at a spray voltage of 3500 and 3000 V, respectively. Nitrogen was used as sheath and auxiliary gases at a flow rate of 50 and 20 arbitrary units, respectively. Argon was used as collision gas with pressure of 1.5 mTorr.
The combination regimen NUC-1031 with carboplatin was administered to 10 patients with ovarian cancer as part of the Phase Ib study PRO-002.

[2] = tested on: platinum sensitive recurrent ovarian cancer; conditions: cited from earlier work

Row | Structure (SMILES) | Apparent t1/2 (intracellular dFdCTP) ([1]; female) [h] | Clearance ([1]; female) [L/h] | Tmax (intracellular dFdCTP) ([1]; female) [h] | Cmax intracellular dFdCTP levels relative to gemcitabine in combination with carboplatin [1] [fold] | intracellular dFdCTP Cmax concentrations relative to gemcitabine [1] | levels of the toxic metabolite normally associated with gemcitabine [1] | response rate ([2]; P=0.0016) [%] | median PFS ([2]; median follow-up 17 months, carboplatin AUC5 alone or AUC4 day 1 plus gemcitabine 1000 mg/m^2 days 1 & 8 every 3 weeks) [months]
1 | C[C@H](NP(=O)(OC[C@H]1O[C@@H](n2ccc(N)nc2=O)C(F)(F)[C@@H]1O)Oc1ccccc1)C(=O)OCc1ccccc1 (stereo partly drawn) [NUC-1031, 2′-Deoxy-2′,2′-difluoro-D-cytidine-5′-O-[phenyl (benzoxy-L-alaninyl)] phosphate] | 9.6 | 3.9 | 1 | 4 | around 10 × | less than half | – | –
2 | N.N.O=C([O-])C1(C(=O)[O-])CCC1.[Pt+2] [carboplatin] | – | – | – | – | – | – | 30.9 | 5.8
